# From patent publication US9505728B2, “Triazolone compounds and uses thereof” (INCEPTION 2, INC., priority 2012, dated 2016)
# Target: T1, Human PPARα (Homo sapiens, UniProt Q07869)
# T1 construct: host or cells: proprietary non-human mammalian cells
# T1 sequence (Q07869 1-468): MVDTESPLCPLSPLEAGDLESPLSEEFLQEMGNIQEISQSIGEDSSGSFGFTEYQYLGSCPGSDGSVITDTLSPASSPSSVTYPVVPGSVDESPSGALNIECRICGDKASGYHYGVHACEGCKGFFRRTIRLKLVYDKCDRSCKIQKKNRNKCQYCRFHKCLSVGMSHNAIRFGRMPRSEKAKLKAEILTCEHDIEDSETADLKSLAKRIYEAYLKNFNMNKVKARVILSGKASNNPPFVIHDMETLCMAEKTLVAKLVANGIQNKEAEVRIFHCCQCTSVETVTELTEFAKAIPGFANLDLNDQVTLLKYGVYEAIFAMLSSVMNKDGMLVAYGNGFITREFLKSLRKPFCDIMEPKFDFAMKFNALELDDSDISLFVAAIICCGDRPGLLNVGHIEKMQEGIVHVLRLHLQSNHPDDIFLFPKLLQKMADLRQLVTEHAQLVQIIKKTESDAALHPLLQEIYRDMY
# Experiment: Human PPARα Reporter Assay (luciferase)
# Type: cell-based
# Details: human PPARα reporter cells, overnight incubation, antagonism; read-out: Luciferase IC50
# Protocol: Human PPARα Reporter Assay
# The screening of test compounds for agonist or antagonist activities against human PPARα receptors was performed using a commercial kit, Human PPARα Reporter Assay System (Indigo Biosciences, Cat. #IB00111).
# This nuclear receptor assay system utilizes proprietary non-human mammalian cells engineered to provide constitutive, high-level expression of Human PPARα. Because these cells incorporate a PPARα-responsive luciferase reporter gene, quantifying expressed luciferase activity provides a sensitive surrogate measure of PPARα activity in the treated cells. The primary application of this reporter assay system is in the screening of test samples to quantify any functional activity, either agonist or antagonist, that they may exert against human PPARα.
# Briefly, reporter cells are dispensed into wells of the assay plate and then immediately dosed with test compounds. Following an overnight incubation, the treatment media is discarded and Luciferase Detection Reagent (LDR) is added. The intensity of light emission from the ensuing luciferase reaction provides a sensitive measure that is directly proportional to the relative level of PPARα activation in the reporter cells.
row,Compound,IC50
1,"CCn1c(CCCc2ccc(-c3ccc(OC)c(NS(=O)(=O)C4CCCCC4)n3)cc2)nn(Cc2ccc(C(C)(C)C)cc2)c1=O [Example 192, 1-{[4-(tert-Butyl)phenyl]methyl}-4-ethyl-3-[3-(4-{6-[(cyclohexylsulfonyl)amino]-5-methoxy(2-pyridyl)}phenyl)propyl]-1,2,4-triazolin-5-one]",0.012 µM
2,"CCn1c(CCCc2ccc(-c3ccc4[nH]cc(C(=O)O)c4c3)cc2)nn(Cc2ccc(C(C)(C)C)cc2)c1=O [Example 70, 5-(4-(3-(1-(4-(tert-Butyl)benzyl)-4-ethyl-5-oxo-4,5-dihydro-1H-1,2,4-triazol-3-yl)propyl)phenyl)-1H-indole-3-carboxylic acid]",0.27 µM
3,"CCn1c(CCCc2ccc(-c3ccc(CS(=O)(=O)NCc4ccccc4)cc3)cc2)nn(Cc2ccc(C(C)(C)C)cc2)c1=O [Example 104, N-Benzyl-1-(4′-(3-(1-(4-(tert-butyl)benzyl)-4-ethyl-5-oxo-4,5-dihydro-1H-1,2,4-triazol-3-yl)propyl)-[1,1′-biphenyl]-4-yl)methanesulfonamide]",0.591 µM
4,"COc1ccc(-c2ccc(CCCc3nn(Cc4ccc(C(C)(C)C)cc4)c(=O)n3C)cc2)cc1CC(=O)O [Example 106, 2-(4′-(3-(1-(4-(tert-Butyl)benzyl)-4-methyl-5-oxo-4,5-dihydro-1H-1,2,4-triazol-3-yl)propyl)-4-methoxy-[1,1′-biphenyl]-3-yl)acetic acid]",0.026 µM
5,"CCn1c(CCCc2ccc(-c3cccc(C(=O)C(=O)NC4CC4)c3)cc2)nn(Cc2ccc(C(C)(C)C)cc2)c1=O [Example 57, 2-(4′-(3-(1-(4-(tert-Butyl)benzyl)-4-ethyl-5-oxo-4,5-dihydro-1H-1,2,4-triazol-3-yl)propyl)-[1,1′-biphenyl]-3-yl)-N-cyclopropyl-2-oxoacetamide]",0.175 µM
6,"CCn1c(CCCc2ccc(-c3ccc4occ(C(=O)O)c4c3)cc2)nn(Cc2ccc(C(C)(C)C)cc2)c1=O [Example 89, 5-(4-(3-(1-(4-(tert-Butyl)benzyl)-4-ethyl-5-oxo-4,5-dihydro-1H-1,2,4-triazol-3-yl)propyl)phenyl)benzofuran-3-carboxylic acid]",0.251 µM
7,"CCn1c(CCCc2ccc(-c3cnc(OC)c(C(=O)O)n3)cc2)nn(Cc2ccc(C(C)(C)C)cc2)c1=O [Example 162, 6-(4-(3-(1-(4-(tert-Butyl)benzyl)-4-ethyl-5-oxo-4,5-dihydro-1H-1,2,4-triazol-3-yl)propyl)phenyl)-3-methoxypyrazine-2-carboxylic acid]",0.63 µM
8,"CCn1c(CCCc2ccc(-c3cccc(NS(=O)(=O)c4ccccc4)n3)cc2)nn(Cc2ccc(C(C)(C)C)cc2)c1=O [Example 4, N-(6-(4-(3-(1-(4-(tert-Butyl)benzyl)-4-ethyl-5-oxo-4,5-dihydro-1H-1,2,4-triazol-3-yl)propyl)phenyl)pyridin-2-yl)benzenesulfonamide]",0.04 µM
9,"CCn1c(CCCc2ccc(-c3ccc(C4(O)COC4)cn3)cc2)nn(Cc2ccc(C(C)(C)C)cc2)c1=O [Example 197, 1-(4-(tert-Butyl)benzyl)-4-ethyl-3-(3-(4-(5-(3-hydroxyoxetan-3-yl)pyridine-2-yl)phenyl)propyl)-1H-1,2,4-triazol-5(4H)-one]",0.106 µM
10,"CCn1c(CCCc2ccc(-c3ccc(OC)c(C(=O)O)n3)cc2)nn(Cc2ccc(C(C)(C)C)cc2)c1=O [Example 139, 6-(4-(3-(1-(4-(tert-Butyl)benzyl)-4-ethyl-5-oxo-4,5-dihydro-1H-1,2,4-triazol-3-yl)propyl)phenyl)-3-methoxypicolinic acid]",0.089 µM
11,"CCn1c(CCCc2ccc(-c3cccc(NS(=O)(=O)c4ccc(Cl)cc4)n3)cc2)nn(Cc2ccc(C(C)(C)C)cc2)c1=O [Example 83, 1-{[4-(tert-Butyl)phenyl]methyl}-3-{3-[4-(6-{[(4-chlorophenyl)sulfonyl]amino}(2-pyridyl))phenyl]propyl}-4-ethyl-1,2,4-triazolin-5-one]",0.06 µM
12,"CCn1c(CCC(F)(F)c2ccc(-c3ccc(C4(F)COC4)cn3)cc2)nn(Cc2ccc(C(C)(C)C)cc2)c1=O [Example 195, 1-(4-(tert-Butyl)benzyl)-3-(3,3-difluoro-3-(4-(5-(3-fluorooxetan-3-yl)pyridine-2-yl)phenyl)propyl)-4-ethyl-1H-1,2,4-triazol-5(4H)-one]",0.049 µM
13,"CCn1c(CCCc2ccc(-c3ccc(OC)c(NS(=O)(=O)CC)n3)cc2)nn(Cc2ccc(C(C)(C)C)cc2)c1=O [Example 189, 1-{[4-(tert-Butyl)phenyl]methyl}-4-ethyl-3-[3-(4-{6-[(ethylsulfonyl)amino]-5-methoxy(2-pyridyl)}phenyl)propyl]-1,2,4-triazolin-5-one]",0.036 µM
14,"CCn1c(CCCc2ccc(-c3ccnc(NS(=O)(=O)c4ccccc4)n3)cc2)nn(Cc2ccc(C(C)(C)C)cc2)c1=O [Example 138, N-(4-(4-(3-(1-(4-(tert-Butyl)benzyl)-4-ethyl-5-oxo-4,5-dihydro-1H-1,2,4-triazol-3-yl)propyl)phenyl)pyrimidin-2-yl)benzenesulfonamide]",0.033 µM
15,"CCn1c(CCCc2ccc(-c3ncc(NS(=O)(=O)c4ccccc4)cn3)cc2)nn(Cc2ccc(C(C)(C)C)cc2)c1=O [Example 108, N-(2-(4-(3-(1-(4-(tert-Butyl)benzyl)-4-ethyl-5-oxo-4,5-dihydro-1H-1,2,4-triazol-3-yl)propyl)phenyl)pyrimidin-5-yl)benzenesulfonamide]",0.165 µM
16,"CCn1c(CCCc2ccc(-c3cccc(N)c3)cc2)nn(Cc2ccc(C(C)(C)C)cc2)c1=O [Example 6, 3-(3-(3′-Amino-[1,1′-biphenyl]-4-yl)propyl)-1-(4-(tert-butyl)benzyl)-4-ethyl-1H-1,2,4-triazol-5(4H)-one]",0.255 µM
17,"CCNC(=O)Nc1ccc(-c2ccc(CCCc3nn(Cc4ccc(C(C)(C)C)cc4)c(=O)n3CC)cc2)nc1 [Example 169, 1-(6-(4-(3-(1-(4-(tert-Butyl)benzyl)-4-ethyl-5-oxo-4,5-dihydro-1H-1,2,4-triazol-3-yl)propyl)phenyl)pyridin-3-yl)-3-ethylurea]",0.535 µM
18,"CCn1c(CCCc2ccc(-c3cccc(NS(=O)(=O)Cc4ccccc4)n3)cc2)nn(Cc2ccc(C(C)(C)C)cc2)c1=O [Example 78, 1-{[4-(tert-Butyl)phenyl]methyl}-4-ethyl-3-{3-[4-(6-{[benzylsulfonyl]amino}(2-pyridyl))phenyl]propyl}-1,2,4-triazolin-5-one]",0.037 µM
19,"CCn1c(CCCc2ccc(-c3cccc(NC(=O)c4ccccc4)n3)cc2)nn(Cc2ccc(C(C)(C)C)cc2)c1=O [Example 97, N-(6-{4-[3-(1-{[4-(tert-Butyl)phenyl]methyl}-4-ethyl-5-oxo(1,2,4-triazolin-3-yl))propyl]phenyl}(2-pyridyl))benzamide]",0.745 µM
20,"CCn1c(CCCc2ccc(-c3ccc(C)c(N)c3)cc2)nn(Cc2ccc(C(C)(C)C)cc2)c1=O [Example 149, 3-(3-(3′-Amino-4′-methyl-[1,1′-biphenyl]-4-yl)propyl)-1-(4-(tert-butyl)benzyl)-4-ethyl-1H-1,2,4-triazol-5(4H)-one]",0.161 µM
21,"CCn1c(CCCc2ccc(-c3ccc(OC)c(NS(=O)(=O)c4ccc(C(F)(F)F)cc4)n3)cc2)nn(Cc2ccc(C(C)(C)C)cc2)c1=O [Example 88, 1-{[4-(tert-Butyl)phenyl]methyl}-4-ethyl-3-(3-{4-[5-methoxy-6-({[4-(trifluoromethyl)phenyl]sulfonyl}amino)(2-pyridyl)]phenyl}propyl)-1,2,4-triazolin-5-one]",0.024 µM
22,"CCn1c(CCCc2ccc(-c3ccc(OC)c(N)c3)cc2)nn(Cc2ccc(C(C)(C)C)cc2)c1=O [Example 147, 3-(3-(3′-Amino-4′-methoxy-[1,1′-biphenyl]-4-yl)propyl)-1-(4-(tert-butyl)benzyl)-4-ethyl-1H-1,2,4-triazol-5(4H)-one]",0.085 µM
23,"CCn1c(CCCc2ccc(-c3ccc(C(F)(F)F)c(N)c3)cc2)nn(Cc2ccc(C(C)(C)C)cc2)c1=O [Example 148, 3-(3-(3′-Amino-4′-(trifluoromethyl)-[1,1′-biphenyl]-4-yl)propyl)-1-(4-(tert-butyl)benzyl)-4-ethyl-1H-1,2,4-triazol-5(4H)-one]",0.241 µM
24,"CCn1c(CCCc2ccc(-c3ccc(NS(=O)(=O)c4ccccc4)c(OC)n3)cc2)nn(Cc2ccc(C(C)(C)C)cc2)c1=O [Example 98, 1-{[4-(tert-Butyl)phenyl]methyl}-4-ethyl-3-[3-(4-{6-methoxy-5-[(phenylsulfonyl)amino](2-pyridyl)}phenyl)propyl]-1,2,4-triazolin-5-one]",0.264 µM
25,"CCn1c(CCCc2ccc(-c3ccc(C4(O)CCOCC4)cc3)cc2)nn(Cc2ccc(C(C)(C)C)cc2)c1=O [Example 187, 1-(4-(tert-Butyl)benzyl)-4-ethyl-3-(3-(4′-(4-hydroxytetrahydro-2H-pyran-4-yl)-[1,1′-biphenyl]-4-yl)propyl)-1H-1,2,4-triazol-5(4H)-one]",0.607 µM
